Reference: PubChem BioAssay (NCI)
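Grown in 96-well plates, cells were treated for 48 hours with each compound at five concentrations. Insufficient inhibition: endpoint recorded as highest concentration tested. TGI: total growth inhibition.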

Columns and labels:
Test in all cases: NCI tumour cell line growth inhibition, 48 h
[1] = tested on: 786-0 renal
[2] = tested on: ACHN renal
[3] = tested on: CAKI-1 renal
[4] = tested on: CCRF-CEM leukemia
[5] = tested on: EKVX NSCLC
[6] = tested on: HCT-116 colon
[7] = tested on: HCT-15 colon
[8] = tested on: LOX IMVI melanoma
[9] = tested on: MDA-MB-231 breast
[10] = tested on: MOLT-4 leukemia
[11] = tested on: NCI-H226 lung
[12] = tested on: OVCAR-4 ovarian
[13] = tested on: RXF 393 renal
[14] = tested on: SNB-19 CNS
[15] = tested on: SR leukemia
[16] = tested on: TK-10 renal

Row | Structure (SMILES) | TGI [1] | TGI [2] | TGI [3] | TGI [4] | TGI [5] | TGI [6] | TGI [7] | TGI [8] | TGI [9] | TGI [10] | TGI [11] | TGI [12] | TGI [13] | TGI [14] | TGI [15] | TGI [16]
1 | N/C(=N\S(=O)(=O)c1cc(Cl)c(Oc2ccc([N+](=O)[O-])cc2Cl)c(Cl)c1)Nc1ccc(Cl)cc1 | 35.1 µM | 30.5 µM | 33.1 µM | 52.1 µM | 36.6 µM | 34.3 µM | 33.3 µM | 31.6 µM | 32.9 µM | 34.2 µM | 33.2 µM | 30.4 µM | 31.8 µM | 33.6 µM | 43.3 µM | 35.4 µM
2 | COc1cc(/C=N/NC2=NCCCCN2)ccc1O | > 100 µM | > 100 µM | – | > 100 µM | > 100 µM | > 100 µM | > 100 µM | > 100 µM | > 100 µM | > 100 µM | > 100 µM | > 100 µM | > 100 µM | > 100 µM | > 100 µM | > 100 µM
3 | O=c1oc2ccc([N+](=O)[O-])cc2cc1Br | > 100 µM | > 100 µM | > 100 µM | > 100 µM | > 100 µM | > 100 µM | – | > 100 µM | > 100 µM | > 100 µM | > 100 µM | > 100 µM | > 100 µM | > 100 µM | > 100 µM | > 100 µM
4 | CCO/C(Cc1ccc(Cl)cc1)=N/NC(N)=S | > 100 µM | > 100 µM | > 100 µM | > 100 µM | > 100 µM | > 100 µM | > 100 µM | > 100 µM | > 100 µM | > 100 µM | > 100 µM | > 100 µM | – | > 100 µM | > 100 µM | > 100 µM
5 | C#CC1NC(=O)C1N(CC)CC (configuration not stated) | > 100 µM | > 100 µM | > 100 µM | > 100 µM | > 100 µM | > 100 µM | > 100 µM | > 100 µM | > 100 µM | > 100 µM | > 100 µM | > 100 µM | > 100 µM | > 100 µM | > 100 µM | > 100 µM
6 | NC(=O)C(=CNC(=S)Nc1cccc(C(F)(F)F)c1)C(N)=O | > 100 µM | > 100 µM | > 100 µM | > 100 µM | – | > 100 µM | – | > 100 µM | > 100 µM | > 100 µM | > 100 µM | > 100 µM | > 100 µM | > 100 µM | > 100 µM | > 100 µM
7 | CC1CN=C(Nc2ccc(F)c(Cl)c2)S1 (configuration not stated) | > 100 µM | > 100 µM | > 100 µM | > 100 µM | > 100 µM | > 100 µM | > 100 µM | > 100 µM | > 100 µM | – | > 100 µM | – | > 100 µM | > 100 µM | > 100 µM | > 100 µM
8 | CC(=O)OCC1OC(n2nc(Cc3ccccc3)c(=S)[nH]c2=S)C(OC(C)=O)C(OC(C)=O)C1OC(C)=O (configuration not stated) | > 100 µM | > 100 µM | > 100 µM | – | – | 47.1 µM | 40.5 µM | 41.9 µM | 30.6 µM | > 100 µM | > 100 µM | 39.6 µM | 44.6 µM | 78.8 µM | > 100 µM | > 100 µM
9 | Cc1csc(NNC(=O)Nc2ccccc2)n1 | > 100 µM | > 100 µM | > 100 µM | > 100 µM | > 100 µM | > 100 µM | > 100 µM | > 100 µM | > 100 µM | – | > 100 µM | > 100 µM | > 100 µM | > 100 µM | > 100 µM | –
10 | COc1cc2ccc1OCc1cccc(n1)COc1ccc(cc1OC)C=NCCNCCN=C2 | > 100 µM | > 100 µM | > 100 µM | – | > 100 µM | > 100 µM | > 100 µM | > 100 µM | > 100 µM | > 100 µM | > 100 µM | > 100 µM | > 100 µM | > 100 µM | > 100 µM | > 100 µM
11 | O=C1O/C(=C\c2ccc(O)cc2)C(c2ccc(O)c(Cl)c2)=C1Cl | > 100 µM | > 100 µM | > 100 µM | > 100 µM | > 100 µM | – | > 100 µM | > 100 µM | > 100 µM | > 100 µM | > 100 µM | > 100 µM | 73 µM | > 100 µM | > 100 µM | > 100 µM
12 | CSc1c(C#N)c(S)[nH]c(=O)c1C#N | > 100 µM | – | > 100 µM | > 100 µM | > 100 µM | > 100 µM | > 100 µM | > 100 µM | > 100 µM | > 100 µM | > 100 µM | > 100 µM | > 100 µM | > 100 µM | > 100 µM | > 100 µM
13 | CC1C(c2ccccc2O)c2cc3c(cc2OC1N1CCOCC1)OCO3 (configuration not stated) | > 100 µM | > 100 µM | 77.5 µM | 61.3 µM | > 100 µM | 75.9 µM | > 100 µM | 41.3 µM | 73.9 µM | 83.7 µM | 77.4 µM | – | 48.9 µM | > 100 µM | 29.5 µM | 97.6 µM
14 | CCOC(=O)C(CCc1ncnc2c1ncn2Cc1ccccc1)(CCc1ncnc2c1ncn2Cc1ccccc1)C(=O)OCC | > 100 µM | > 100 µM | > 100 µM | – | > 100 µM | > 100 µM | > 100 µM | > 100 µM | > 100 µM | > 100 µM | > 100 µM | > 100 µM | > 100 µM | > 100 µM | > 100 µM | > 100 µM
15 | CCCCc1ccc(C#CC#Cc2ccc(CCCC)s2)s1 | > 100 µM | > 100 µM | > 100 µM | > 100 µM | > 100 µM | > 100 µM | > 100 µM | – | > 100 µM | > 100 µM | > 100 µM | > 100 µM | > 100 µM | – | > 100 µM | > 100 µM
16 | O=c1c2ccccc2[nH]c2c(Cl)cc(Cl)c(N3CCCCC3)c12 | > 10 µM | 65.7 µM | 97.1 µM | > 10 µM | > 100 µM | > 100 µM | > 100 µM | > 100 µM | > 100 µM | > 100 µM | 62 µM | > 100 µM | – | 77.9 µM | > 100 µM | > 100 µM
17 | C=CC1(C)OC2(CCN(C(=O)OCC)CC2)OC1C (configuration not stated) | > 100 µM | > 100 µM | > 100 µM | > 100 µM | > 100 µM | – | > 100 µM | > 100 µM | > 100 µM | > 100 µM | > 100 µM | > 100 µM | > 100 µM | > 100 µM | > 100 µM | > 100 µM
18 | COC1C(O)C(C)OC(OC2CCC3(C)C(CCC4C3C(O)CC3(C)C(C5=CC(=O)OC5)CCC43O)C2)C1O (configuration not stated) | – | 0.684 µM | 0.469 µM | – | 0.536 µM | 0.533 µM | 1.03 µM | 0.775 µM | 24.4 µM | 0.174 µM | 2.39 µM | – | 0.237 µM | 2.04 µM | > 100 µM | 1.57 µM
19 | COc1cc2c[n+](C)c3c(c2cc1OC)Cc1cc2c(cc1-3)OCO2 | > 100 µM | – | > 100 µM | > 100 µM | > 100 µM | > 100 µM | > 100 µM | > 100 µM | > 100 µM | > 100 µM | > 100 µM | > 100 µM | – | > 100 µM | > 100 µM | > 100 µM
20 | Cc1c(F)c(NC(=O)CN(C)C)c2c(=O)cc(-c3ccc(NC(=O)CN(C)C)c(F)c3)oc2c1F | 31.1 µM | 29.6 µM | 23.1 µM | 57 µM | – | 29.3 µM | 33.7 µM | 30.9 µM | 26.9 µM | 31.9 µM | 29.2 µM | 37.6 µM | 25.6 µM | 41.2 µM | 6.15 µM | 23.4 µM
21 | CN(CCCn1ccnc1[N+](=O)[O-])CCCn1ccnc1[N+](=O)[O-] | > 100 µM | > 100 µM | > 100 µM | > 100 µM | > 100 µM | > 100 µM | > 100 µM | > 100 µM | > 100 µM | > 100 µM | > 100 µM | > 100 µM | > 100 µM | – | > 100 µM | > 100 µM
22 | COc1ccc(C(=O)/C=C/c2ccc(OCC(=N)N)cc2)cc1 | 29.9 µM | 31.9 µM | – | 25.7 µM | 30.8 µM | 16.7 µM | 31.7 µM | – | 27.8 µM | 30.9 µM | 34.1 µM | 30.5 µM | 28.3 µM | 29.2 µM | 25.9 µM | 38.9 µM
23 | [N-]=[N+]=CC(=O)CCC(=O)N(c1ccccc1)c1ccccc1 | > 10 µM | > 10 µM | – | > 10 µM | > 10 µM | > 10 µM | > 10 µM | > 10 µM | > 10 µM | > 10 µM | > 10 µM | – | > 10 µM | > 10 µM | > 10 µM | > 10 µM
24 | N#Cc1c(N2CCN(c3ccc([N+](=O)[O-])cc3)CC2)[n+](=O)c2ccccc2n1[O-] | > 100 µM | > 100 µM | > 100 µM | > 100 µM | > 100 µM | > 100 µM | > 100 µM | > 100 µM | > 100 µM | > 100 µM | – | > 100 µM | > 100 µM | > 100 µM | 5.69 µM | > 100 µM
